Measured values from patent US9700578B2, “Use of nitrite salts for the treatment of cardiovascular conditions” (The United States of America as represented by the …, priority 2003, dated 2017).
Values joined by “and” are separate entries in the source; they are usually repeats but may differ in a detail not shown here. Equal values may be shown once. Read-outs that look alike come from different tables or passages of the source.

Assays:
[1] = molecular target: deoxyhemoglobin (Homo sapiens, UniProt P68871+P69905); conditions: 25° C., pH 7.0; cited from earlier work
[2] = system: forearm circulation; test: Sodium nitrite infusion into the brachial artery, forearm blood flow by venous-occlusion plethysmography
Description: (§1) The protocol was approved by the Institutional Review Board of the National Heart, Lung and Blood Institute, and informed consent was obtained from all volunteer subjects. […] An additional 10 subjects returned three-six months later for a second series of experiments with low dose nitrite infusion. […] No volunteer subject was allowed to take any medication (oral contraceptive agents allowed), vitamin supplements, herbal preparations, nutriceuticals or other “alternative therapies” for at least one month prior to study and were not be allowed to take aspirin for one week prior to study.
(§2) Brachial artery and antecubital vein catheters were placed into the arm, with the intraarterial catheter connected to a pressure transducer for blood pressure measurements and an infusion pump delivering normal saline at 1 mL/min. After 20 minutes of rest, baseline arterial and venous blood samples were obtained and forearm blood flow measurements were made by strain gauge venous-occlusion plethysmography, as previously reported (Panza et al., Circulation, 87, 1468-74, 1993). A series of 7 blood flow measurements were averaged for each blood flow determination. A series of measurements termed Parts I and II were performed in randomized order to minimize a time effect on the forearm blood flow response during nitrite infusion.
(§3) Part I: Following 20 minutes of 0.9% NaCl (saline) solution infusion at 1 mL/min into the brachial artery, arterial and venous blood samples were obtained for the assays described below and forearm blood flow measured. Exercise was performed by repetitive hand-grip at one-third of the predetermined maximum grip strength using a hand-grip dynamometer (Technical Products Co.) (Gladwin et al., Proc Natl Acad Sci USA, 97, 9943-8, 2000; Gladwin et al., Proc Natl Acad Sci USA, 97, 11482-11487, 2000; Cannon et al., J Clin Invest, 108, 279-87, 2001). Each contraction lasted for 10 seconds followed by relaxation for 5 seconds. Following 5 minutes of exercise, forearm blood flow measurements were obtained during relaxation phases of exercise, and arterial and venous samples collected. Following a 20-minute rest period with continued infusion of saline into the brachial artery, repeated baseline blood samples and forearm blood flow measurements were obtained. L-NMMA was then infused at a rate of 1 mL/min (8 μmol/min) into the brachial artery. Following 5 minutes of L-NMMA infusion, forearm blood flow was measured, and arterial and venous blood samples obtained. Forearm exercise was then initiated in that arm during continued L-NMMA infusion. Forearm blood flow was measured and blood samples obtained after 5 minutes of exercise during continued L-NMMA infusion (FIG. 1).
(§4) Part II: After a 30 minute rest period with continued infusion of saline, baseline measurements were obtained, the saline infusion was then stopped, and infusion of nitrite (NaNO2 36 μmol/ml in 0.9% saline) at 1 ml/min was started. […] For the final 9 subjects studied, 0.01-0.03 mM sodium bicarbonate was added to the normal saline, so as to titrate pH to 7.0-7.4. The nitrite solution was light protected and nitrite levels and free NO gas in solution measured by reductive chemiluminescence after all experiments (Gladwin et al., J Biol Chem, 21, 21, 2002).

[3] = as above; conditions: human, in vivo
Description: as §1, §2, §3, §4

[4] = system: deoxygenated erythrocytes
Description: To determine whether free NO radical can form from the reaction of nitrite and deoxyhemoglobin, 100 and 200 μM nitrite was mixed with 5 mL of 660 and 1000 μM deoxygenated erythrocytes in a light protected reaction vessel purged with helium or oxygen (both 21% and 100%) in-line with a chemiluminescent NO analyzer (Seivers, Boulder, Colo.). After allowing equilibration for 5 minutes, nitrite was injected and the rate of NO production measured. Nitrite was injected into PBS as a control and into 100 μM hemoglobin to control for the hemolysis in the 660 and 1000 μM deoxygenated erythrocyte solutions. At the end of all experiments the visible absorption spectra of the supernatant and erythrocyte reaction mixture was analyzed and hemoglobin composition deconvoluted using a least-squares algorithm.
To determine whether free NO radical can form from the reaction of nitrite and deoxyhemoglobin, 100 and 200 μM nitrite was reacted with deoxygenated erythrocytes (5 mL volume containing a total of 660 and 1000 μM in heme) in a light protected reaction vessel purged with helium in-line with a chemiluminescent NO analyzer (Seivers, Boulder, Colo.).

[5] = system: hypoxic-induced pulmonary hypertension; test: Comparison of inhaled nitrite and NO gas during hypoxic-induced pulmonary vasoconstriction: efficacy and duration; type: in vivo, newborn lambs; conditions: for reduction (correction) of hypoxic-induced pulmonary hypertension: hypoxia, NO gas 20 ppm or nitrite aerosol for 20 minutes
Description: NO gas was introduced into the inspiratory limb of the breathing circuit. The inspired concentration of NO was continuously measured by chemiluminescence (CLD 700 AL, Eco Physics Inc, Ann Arbor, Mich.) in the inspiratory limb of the ventilator loop.
efficacy and duration of effect. This protocol was designed to compare the efficacy of nitrite with the clinical standard, 20 ppm inhaled NO gas. […] A second purpose was to determine the duration of effect of a short nitrite nebulization versus NO gas inhalation on hemodynamic and physiological measurements during prolonged hypoxic-induced pulmonary vasoconstriction. After baseline measurements were performed, the lambs were made hypoxic as described above for 35 minutes. Ten minutes after initiation of hypoxia, a 20-minute period of NO gas inhalation was initiated (20 ppm), with continuation of hypoxia for 5 minutes after cessation of NO gas delivery. Lambs were then allowed to recover for one hour. Again, after baseline measurements were made, a second 90-minute period of hypoxia was initiated.

[6] = system: hypoxic-induced pulmonary hypertension; conditions: for decrease in pulmonary artery pressure from hypoxic level: FiO2 0.12, nebulized 270 μmol/minute for 20 minutes, n=7
Description: Following induction of anesthesia with intravenous thiopental sodium (20 mg/Kg), the newborn lambs were orotracheally intubated and anesthesia maintained with 1% halothane until catheters were placed surgically. Thereafter halothane was discontinued and anesthesia maintained with morphine (0.1 mg/kg/hr). After paralysis with vecuronium (0.1 mg/kg/hr) the lungs were mechanically ventilated with initial settings of pressures: 22/6 cm H2O, frequency: 25 breaths per minute, FiO2: 0.21, and inspiratory time: 0.6 seconds (Sechrist Model 100, Sechrist Industries, Anaheim Calif., USA). Initially and throughout the normoxic experiments, ventilator settings of frequency, peak inspiratory pressure, and FiO2 were adjusted to maintain SaO2>95%, PaO2 at 90-150 Torr, and PaCO2 at 35-45 Torr.
A catheter was placed in the right brachial artery to sample pre-ductal blood for gases and chemical analysis. A pediatric thermodilution catheter was passed through a femoral vein to the pulmonary artery to measure cardiac output, pulmonary artery and pulmonary capillary wedge pressure (5.0 Pediatric Swan-Ganz® thermodilution catheter, Baxter Healthcare Corporation, Irvine, Calif., USA).
Catheters were placed in the femoral artery and vein for monitoring blood pressure, heart rate, and for administration of fluids and drugs. […]
Mean arterial pressure, mean pulmonary artery pressure, and central venous pressure were measured continuously, and pulmonary capillary wedge pressure was measured intermittently by using calibrated pressure transducers (COBE Laboratories, Lakewood, Colo.) zeroed at the midthoracic level. Cardiac output was measured at 15-minute intervals throughout the studies by thermodilution using a Com-2 thermodilution module (Baxter Medical, Irvine, Calif., USA). […] Pulmonary vascular resistance and systemic vascular resistance were calculated by using standard formulas.
Arterial and mixed venous pH, PCO2, and PO2 were measured in blood samples (0.3 ml) collected at intervals throughout the experiments. Blood gases were measured (ABL3, Radiometer, Copenhagen, Denmark) and oxyhemoglobin saturation and hemoglobin concentration were measured using a hemoximeter (OSM2 Hemoximeter, Radiometer, Copenhagen, Denmark). Arterial and mixed venous methemoglobin concentrations were analyzed by photometry with the OSM2 Hemoximeter using the same arterial sample as in the blood gas determinations.
After anesthesia and instrumentation, the lambs were allowed to recover for 30 to 90 minutes while relevant hemodynamic parameters were monitored. […]
Exhaled NO concentration was measured with a chemiluminescence NO analyzer (NOA 280, Sievers Instruments, Inc., Boulder, Colo.). […]

Chain of deoxyhemoglobin (P69905 2-142 limits assumed): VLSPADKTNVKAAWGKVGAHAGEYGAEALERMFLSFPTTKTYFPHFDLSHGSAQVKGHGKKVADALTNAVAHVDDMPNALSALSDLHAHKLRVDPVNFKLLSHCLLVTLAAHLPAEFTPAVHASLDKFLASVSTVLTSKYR
Chain of deoxyhemoglobin (P68871 2-147 limits assumed): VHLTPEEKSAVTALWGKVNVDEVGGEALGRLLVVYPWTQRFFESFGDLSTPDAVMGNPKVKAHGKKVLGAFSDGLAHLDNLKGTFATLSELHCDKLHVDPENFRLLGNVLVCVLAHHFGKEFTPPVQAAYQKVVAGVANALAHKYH

For `O=NO` [sodium nitrite], the “rate constant of nitrite reduction to NO and methemoglobin” value [1] is listed as 2.9 M⁻¹ s⁻¹, the “increase in blood flow, low dose” value ([2]; 360 nmoles per minute) is listed as “about 22%” and the “forearm blood flow after low-dose nitrite infusion” value ([2]; 400 nmol/mL at 1 mL/min for five minutes, 10 subjects, baseline 3.49±0.24) is listed as 4.51±0.33 ml/min per 100 mL tissue. The “systemic level of nitrite (contralateral arm)” value ([2]; 36 μmol/min into brachial artery) was 16 µM, the “decrease of mean blood pressure” value ([2]; 36 μmol/min into brachial artery, systemic nitrite 16 μM) was “approximately 7 mm Hg” and the “venous hemoglobin oxygen saturation, pO2 and pH versus pre-infusion values” ([2]; 36 μmol/min, 5 min, at rest) was “significantly increased”. The “forearm nitrite concentration, low dose, at rest” value ([2]; dose reduced 2-logs (360 nmoles per minute)) was 2 µM, the “forearm nitrite concentration, low dose, during exercise” value ([2]; dose reduced 2-logs, exercise) was 0.9 µM and the “venous nitrite level after low-dose infusion, during exercise” value ([2]; low dose, exercise) was 909 ± 113 nM. For the same molecule, the “forearm blood flow 30 minutes after cessation of nitrite infusion” value ([2]; saline for 30 min after infusion, pre-nitrite value 3.94±0.38) was 4.79±0.37 mL/min per 100 mL tissue, the “systemic blood pressure 30 minutes after cessation of nitrite infusion” value ([2]; saline for 30 min after infusion, pre-nitrite value 89.2±3.5) was 82.1±3.7 mm Hg and the concentration at 5 min ([3]; both, 36 μmol/min, nitrite level in the ipsilateral antecubital vein (regional forearm nitrite concentration), 36 μmol/min into brachial artery, 5 min, 18 healthy subjects) was ~222000 nM. The concentration at 5 min ([3]; 0.36 μmol/min, mean venous nitrite level after low-dose infusion, at rest, low dose, five-minute infusion, baseline 176±17) was 2560 ± 462 nM, the concentration at 5 min ([3]; 360 nmoles per minute, forearm nitrite concentration, low dose, at rest, dose reduced 2-logs (360 nmoles per minute)) was ~2000 nM and the “NO release on addition to oxygenated erythrocytes” value ([4]; 21% and 100% oxygen, versus deoxygenated erythrocytes) was “significantly less NO”. The “rate of NO production in the 5 mL reaction volume” value ([4]; 100 and 200 μM nitrite, deoxygenated erythrocytes 660 and 1000 μM in heme, helium purged) was 47 pM per second, the “NO release into the gas phase in buffer control” value ([4]; PBS, same conditions) was “no release” and the “methemoglobin concentration after nitrite nebulization” value ([5]; baseline 2.1±0.1) was 2.8±0.2%. The “duration of sustained vasodilation after discontinuation of inhalation” value ([5]; hypoxia continued 60 minutes after nebulization) was “more than 60 minutes”, the “reduction (correction) of hypoxic-induced pulmonary hypertension” value [5] was “about 60%” and the “reduction (correction) of hypoxic-induced pulmonary hypertension” value ([5]; listed as nitrite) was 60-70%. For the same molecule, the “decrease in pulmonary artery pressure from hypoxic level” value [6] was ~60%, the “decrease in pulmonary artery pressure from hypoxic level” value ([6]; listed as nitrite) was ~60% and 63+/−3% and the “cardiac output, arterial oxyhemoglobin saturation and methemoglobin levels” value ([6]; versus preceding ten minutes of hypoxia) was “did not change measurably”.
